Patent US20160214956A1, “NOVEL SOLUBLE GUANYLATE CYCLASE ACTIVATORS AND THEIR USE” (GLAXOSMITHKLINE INTELLECTUAL PROPERTY DEVELOPMENT LIMITED, priority 2013, published 2016)

Biological target: T1, human sGC (Homo sapiens, UniProt Q02153)
T1 sequence (Q02153 1-619): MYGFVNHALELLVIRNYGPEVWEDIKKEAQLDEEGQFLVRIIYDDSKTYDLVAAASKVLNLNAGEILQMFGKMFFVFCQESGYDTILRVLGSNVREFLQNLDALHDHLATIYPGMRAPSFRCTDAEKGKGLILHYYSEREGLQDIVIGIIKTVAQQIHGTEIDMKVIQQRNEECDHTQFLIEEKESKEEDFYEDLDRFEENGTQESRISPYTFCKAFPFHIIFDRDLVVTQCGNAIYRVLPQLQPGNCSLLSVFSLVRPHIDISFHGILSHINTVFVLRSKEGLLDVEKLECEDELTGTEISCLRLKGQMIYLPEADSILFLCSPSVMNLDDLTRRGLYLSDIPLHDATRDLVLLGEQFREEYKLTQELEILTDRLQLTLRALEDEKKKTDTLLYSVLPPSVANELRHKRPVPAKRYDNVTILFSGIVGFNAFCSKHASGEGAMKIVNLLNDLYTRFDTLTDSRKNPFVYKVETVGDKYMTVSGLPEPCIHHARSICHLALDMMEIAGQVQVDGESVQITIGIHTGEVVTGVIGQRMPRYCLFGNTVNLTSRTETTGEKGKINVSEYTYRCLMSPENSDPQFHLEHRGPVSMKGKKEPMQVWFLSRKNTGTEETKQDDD
T1 sequence (Q02108 1-690 partner): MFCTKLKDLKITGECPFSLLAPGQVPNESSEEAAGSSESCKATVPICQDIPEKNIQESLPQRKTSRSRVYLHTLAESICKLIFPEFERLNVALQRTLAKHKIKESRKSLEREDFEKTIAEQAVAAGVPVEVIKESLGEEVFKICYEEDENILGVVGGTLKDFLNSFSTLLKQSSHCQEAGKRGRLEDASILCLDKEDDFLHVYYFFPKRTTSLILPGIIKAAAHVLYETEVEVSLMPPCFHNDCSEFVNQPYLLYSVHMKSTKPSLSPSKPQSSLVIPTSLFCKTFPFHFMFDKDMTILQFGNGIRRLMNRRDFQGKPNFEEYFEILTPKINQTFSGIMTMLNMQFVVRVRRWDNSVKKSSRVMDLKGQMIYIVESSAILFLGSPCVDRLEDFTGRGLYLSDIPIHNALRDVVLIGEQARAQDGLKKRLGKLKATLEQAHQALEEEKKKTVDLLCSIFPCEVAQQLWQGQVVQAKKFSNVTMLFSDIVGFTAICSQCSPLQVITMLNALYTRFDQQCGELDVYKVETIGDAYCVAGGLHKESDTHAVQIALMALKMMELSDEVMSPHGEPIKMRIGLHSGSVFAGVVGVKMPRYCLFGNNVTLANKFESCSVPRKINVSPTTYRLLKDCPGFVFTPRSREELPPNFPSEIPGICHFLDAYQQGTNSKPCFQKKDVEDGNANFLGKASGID
Assay: sGC enzyme assay, fluorescence polarisation of labelled cGMP
Assay type: biochemical
Details: human sGC 1 nM, FP assay; concentration able to increase by 5-fold basal cGMP
Experimental: The activity of soluble guanylate cyclase (sGC) was tested in an assay based on measuring the fluorescent polarisation (FP) signal of fluorescently labelled cGMP. FP increased on interaction with an anti-cGMP antibody as the motility of the molecule was reduced. Newly produced cGMP displaced the interaction giving rise to a decrease in polarisation and FP signal which was equated to enzyme activity. Compounds were incubated with human sGC, anti-cGMP antibody, the GTP substrate and fluorescently labelled cGMP. After a period of one hour the assay was stopped with the addition of EDTA and after a further hour the assay was read.
Human sGC was thawed and resuspended in assay buffer (100 mM TRIS, 10 mM MgCl2, 0.2 mM Tween 20, pH7.4, containing 1:100 dilution of sheep anti-cGMP) to give final concentration of 1 nM in the well. A substrate solution was prepared containing GTP and 8-fluo-cGMP in de-ionized water to a final concentration of 25 μM and 50 nM respectively. Assay plates containing 5 μL of various test compounds and of a standard agonist (50 μM-50 nM) in 1% DMSO as 6 point, four fold dilutions across a 96 well plate were used in the assay. The plate also contained 6 wells of DMSO (1%) to produce high control and a cGMP standard curve (14 nM to 10 μM) to convert FP data to cGMP concentration. 25 μL of enzyme mix and 20 μl of substrate mix described above were added to each well of the plate. Samples were mixed on an orbital shaker and then incubated at room temperature for 1 hour. After this incubation period 5 μl of 0.5M EDTA was added to all wells and the plates were incubated for a further hour at room temperature prior to reading the FP signal in an appropriate reader. For data handling FP data were converted to cGMP concentrations and then fitted using ActivityBase software. The activity of a test compound was determined as the pEC500 value which is the concentration able to increase by 5-fold basal cGMP.

| sGC pEC500 | SMILES |
| --- | --- |
| 6.19 | O=C(O)c1cnn(-c2cccc(-c3ccccc3CCc3ccc(OCCCN4CCOCC4)cc3)n2)c1C(F)(F)F [Example 2, 1-(6-(2-(4-(3-morpholinopropoxy)phenethyl)phenyl)pyridin-2-yl)-5-(trifluoromethyl)-1H-pyrazole-4-carboxylic acid] |
| 6.59 | Cc1cc(OCCCC(=O)O)ccc1COc1ccccc1-c1cccc(-n2ncc(C(=O)O)c2C(F)(F)F)n1 [Example 12, 1-(6-(2-((4-(3-carboxypropoxy)-2-methylbenzyl)oxy)phenyl)pyridin-2-yl)-5-(trifluoromethyl)-1H-pyrazole-4-carboxylic acid] |
| 6.6 | COCCOc1ccc(COc2ccccc2-c2cccc(-n3ncc(C(=O)O)c3C(F)(F)F)n2)cc1 [Example 4, 1-(6-(2-((4-(2-methoxyethoxy)benzyl)oxy)phenyl)pyridin-2-yl)-5-(trifluoromethyl)-1H-pyrazole-4-carboxylic acid] |
| 7.1 | COCCCOc1ccc(COc2ccccc2-c2cccc(-n3ncc(C(=O)O)c3C(F)(F)F)n2)cc1 [Example 7, 1-(6-(2-((4-(3-methoxypropoxy)benzyl)oxy)phenyl)pyridin-2-yl)-5-(trifluoromethyl)-1H-pyrazole-4-carboxylic acid] |
